Results reported in patent EP4678638A1, “NEW E3 UBIQUITIN LIGASE LIGAND, PROTEIN DEGRADATION AGENT AND USE THEREOF” (priority 2023, dated 2024).

Columns and labels:
H1975 = test: CCK-8 proliferation, NCI-H1975 (H1975); type: cell-based, Human; conditions: Homo sapiens, NCI-H1975; CCK-8; 96 hours; read-out: Inhibitory activity (IC50) on tumor cell proliferation, H1975
Outline: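 Cells seeded, then after 24 h treated with 10 concentrations (top 10 µM, 5-fold serial dilution) for a line-specific time at 37°C, 5% CO2. Viability read by CCK-8; IC50 fitted from growth-inhibition curves.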

EGFR = test: Western blot degradation of EGFR (H1975 Cell); type: cell-based, Human; conditions: Table D2
Outline: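 Quantification by ImageJ densitometry of Western blot bands: DC50 is the fitted concentration halving band intensity relative to DMSO. Percent remaining uses internal-control normalization, and degradation rate is its complement.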

SMILES	IC50 (H1975) [nM]	Degradation of substrate protein EGFR (substrate protein remaining %) (EGFR)
O=C1CCC(Nc2cccc(CN3CCN(C4CCN(c5ccc(-c6cc(F)c7c(c6)C(=O)N(C(C(=O)Nc6nccs6)c6ncn8c6CCC8)C7)cc5)CC4(F)F)CC3)c2)C(=O)N1 (stereo not shown) [GT-06321, 2-(6,7-dihydro-5H-pyrrolo[1,2-c]imidazol-1-yl)-2-(6-(4-(4-(4-(3-((2,6-dioxopiperidin-3-yl)amino)benzyl)piperazin-1-yl)-3,3-difluoropiperidin-1-yl)phenyl)-4-fluoro-1-oxoisoindolin-2-yl)-N-(thiazol-2-yl)acetamide]	10 to 50	A (A is defined as 0% ≤ substrate protein remaining % ≤ 80%)
O=C1CCC(c2ccc(CN3CCC(N4CCN(c5ccc(-c6cc(F)c7c(c6)C(=O)N(C(C(=O)Nc6nccs6)c6ncn8c6CCC8)C7)cc5)CC4)CC3)cc2)C(=O)N1 (stereo not shown) [GT-06326, 2-(6,7-dihydro-5H-pyrrolo[1,2-c]imidazol-1-yl)-2-(6-(4-(4-(1-(4-(2,6-dioxopiperidin-3-yl)benzyl)piperidin-4-yl)piperazin-1-yl)phenyl)-4-fluoro-1-oxoisoindolin-2-yl)-N-(thiazol-2-yl)acetamide]	10 to 50	A (A is defined as 0% ≤ substrate protein remaining % ≤ 80%)
O=C1CCC(Nc2cccc(CN3CCC(N4CCN(c5ccc(-c6cc(F)c7c(c6)C(=O)N(C(C(=O)Nc6nccs6)c6ncn8c6CCC8)C7)cc5)CC4)CC3)c2)C(=O)N1 (stereo not shown) [GT-06331, 2-(6,7-dihydro-5H-pyrrolo[1,2-c]imidazol-1-yl)-2-(6-(4-(4-(1-(3-((2,6-dioxopiperidin-3-yl)amino)benzyl)piperidin-4-yl)piperazin-1-yl)phenyl)-4-fluoro-1-oxoisoindolin-2-yl)-N-(thiazol-2-yl)acetamide]	10 to 50	A (A is defined as 0% ≤ substrate protein remaining % ≤ 80%)
O=C1CCC(c2ccc(CN3C[C@H]4C[C@@H]3CN4c3ccc(-c4cc(F)c5c(c4)C(=O)N(C(C(=O)Nc4nccs4)c4ncn6c4CCC6)C5)cc3)nc2)C(=O)N1 (stereo partly drawn) [GT-07389, 2-(6,7-dihydro-5H-pyrrolo[1,2-c]imidazol-1-yl)-2-(6-(4-((1R,4R)-5-((5-(2,6-dioxopiperidin-3-yl)pyridin-2-yl)methyl)-2,5-diazabicyclo[2.2.1]heptan-2-yl)phenyl)-4-fluoro-1-oxoisoindolin-2-yl)-N-(thiazol-2-yl)acetamide]	1 to 10	A (A is defined as 0% ≤ substrate protein remaining % ≤ 80%)
O=C1CCC(c2cc(CN3C[C@H]4C[C@@H]3CN4c3ccc(-c4cc(F)c5c(c4)C(=O)N(C(C(=O)Nc4nccs4)c4ncn6c4CCC6)C5)cc3)ccn2)C(=O)N1 (stereo partly drawn) [GT-07390, 2-(6,7-dihydro-5H-pyrrolo[1,2-c]imidazol-1-yl)-2-(6-(4-((1R,4R)-5-((2-(2,6-dioxopiperidin-3-yl)pyridin-4-yl)methyl)-2,5-diazabicyclo[2.2.1]heptan-2-yl)phenyl)-4-fluoro-1-oxoisoindolin-2-yl)-N-(thiazol-2-yl)acetamide]	1 to 10	A (A is defined as 0% ≤ substrate protein remaining % ≤ 80%)
O=C1CCC(c2cncc(CN3C[C@H]4C[C@@H]3CN4c3ccc(-c4cc(F)c5c(c4)C(=O)N(C(C(=O)Nc4nccs4)c4ncn6c4CCC6)C5)cc3)c2)C(=O)N1 (stereo partly drawn) [GT-07391, 2-(6,7-dihydro-5H-pyrrolo[1,2-c]imidazol-1-yl)-2-(6-(4-((1R,4R)-5-((5-(2,6-dioxopiperidin-3-yl)pyridin-3-yl)methyl)-2,5-diazabicyclo[2.2.1]heptan-2-yl)phenyl)-4-fluoro-1-oxoisoindolin-2-yl)-N-(thiazol-2-yl)acetamide]	1 to 10	A (A is defined as 0% ≤ substrate protein remaining % ≤ 80%)

Further lines, with some results ahead:

IC50 (H1975) [nM]	SMILES	Degradation of substrate protein EGFR (substrate protein remaining %) (EGFR)
1 to 10	O=C1CCN(c2ccc(CN3CCC(N4CCN(c5ccc(-c6cc(F)c7c(c6)C(=O)N(C(C(=O)Nc6nccs6)c6ncn8c6CCC8)C7)cc5)CC4)CC3)nc2)C(=O)N1 (stereo not shown) [GT-06329, 2-(6,7-dihydro-5H-pyrrolo[1,2-c]imidazol-1-yl)-2-(6-(4-(4-(1-((5-(2,4-dioxotetrahydropyrimidin-1(2H)-yl)pyridin-2-yl)methyl)piperidin-4-yl)piperazin-1-yl)phenyl)-4-fluoro-1-oxoisoindolin-2-yl)-N-(thiazol-2-yl)acetamide]	A (A is defined as 0% ≤ substrate protein remaining % ≤ 80%)
1 to 10	O=C1CCN(c2ccc(CN3CCC(N4CCN(c5ccc(-c6cc(F)c7c(c6)C(=O)N(C(C(=O)Nc6nccs6)c6ncn8c6CCC8)C7)cc5)CC4)CC3)cn2)C(=O)N1 (stereo not shown) [GT-06330, 2-(6,7-dihydro-5H-pyrrolo[1,2-c]imidazol-1-yl)-2-(6-(4-(4-(1-((6-(2,4-dioxotetrahydropyrimidin-1(2H)-yl)pyridin-3-yl)methyl)piperidin-4-yl)piperazin-1-yl)phenyl)-4-fluoro-1-oxoisoindolin-2-yl)-N-(thiazol-2-yl)acetamide]	A (A is defined as 0% ≤ substrate protein remaining % ≤ 80%)
1 to 10	CN(Cc1ccnc(N2CCC(=O)NC2=O)c1)C1CCN(c2ccc(-c3cc(F)c4c(c3)C(=O)N(C(C(=O)Nc3nccs3)c3ncn5c3CCC5)C4)cc2)CC1 (stereo not shown) [GT-07383, 2-(6,7-dihydro-5H-pyrrolo[1,2-c]imidazol-1-yl)-2-(6-(4-(4-(((2-(2,4-dioxotetrahydropyrimidin-1(2H)-yl)pyridin-4-yl)methyl)(methyl)amino)piperidin-1-yl)phenyl)-4-fluoro-1-oxoisoindolin-2-yl)-N-(thiazol-2-yl)acetamide]	A (A is defined as 0% ≤ substrate protein remaining % ≤ 80%)
1 to 10	O=C1CCN(c2cc(CN3C[C@H]4C[C@@H]3CN4c3ccc(-c4cc(F)c5c(c4)C(=O)N(C(C(=O)Nc4nccs4)c4ncn6c4CCC6)C5)cc3)c(F)cn2)C(=O)N1 (stereo partly drawn) [GT-07386, 2-(6,7-dihydro-5H-pyrrolo[1,2-c]imidazol-1-yl)-2-(6-(4-((1R,4R)-5-((2-(2,4-dioxotetrahydropyrimidin-1(2H)-yl)-5-fluoropyridin-4-yl)methyl)-2,5-diazabicyclo[2.2.1]heptan-2-yl)phenyl)-4-fluoro-1-oxoisoindolin-2-yl)-N-(thiazol-2-yl)acetamide]	A (A is defined as 0% ≤ substrate protein remaining % ≤ 80%)
1 to 10	O=C1CCN(c2cncc(CN3C[C@H]4C[C@@H]3CN4c3ccc(-c4cc(F)c5c(c4)C(=O)N(C(C(=O)Nc4nccs4)c4ncn6c4CCC6)C5)cc3)c2)C(=O)N1 (stereo partly drawn) [GT-07388, 2-(6,7-dihydro-5H-pyrrolo[1,2-c]imidazol-1-yl)-2-(6-(4-((1R,4R)-5-((5-(2,4-dioxotetrahydropyrimidin-1(2H)-yl)pyridin-3-yl)methyl)-2,5-diazabicyclo[2.2.1]heptan-2-yl)phenyl)-4-fluoro-1-oxoisoindolin-2-yl)-N-(thiazol-2-yl)acetamide]	A (A is defined as 0% ≤ substrate protein remaining % ≤ 80%)
